{"source": "ChEMBL document CHEMBL1152225", "about": "“Optimization of a series of potent and selective ketone histone deacetylase inhibitors” (Bioorg Med Chem Lett, 2008)", "key": {"[1]": {"assay": "Metabolic stability in dog liver microsomes assessed as intrinsic clearance", "type": "ADME, Canis lupus familiaris, Microsome"}, "Liver microsomes": {"tested_on": "Liver microsomes", "assay": "Metabolic stability in human liver microsomes assessed as intrinsic clearance", "type": "ADME, Microsome"}, "[2]": {"assay": "Protein binding in rat plasma", "type": "ADME, cell-free", "conditions": "read-out: PPB (converted)"}, "[3]": {"assay": "Protein binding in dog plasma", "type": "ADME, cell-free, Canis lupus familiaris", "conditions": "read-out: PPB (converted)"}, "[4]": {"assay": "Protein binding in human plasma", "type": "ADME, cell-free", "conditions": "read-out: PPB (converted)"}, "[5]": {"assay": "Half life in iv dosed rat", "type": "ADME, organism-based", "conditions": "in vivo"}, "[6]": {"assay": "Half life in iv dosed dog", "type": "ADME, organism-based, Canis lupus familiaris", "conditions": "in vivo"}, "[7]": {"assay": "Volume of distribution at steady state in iv dosed dog", "type": "ADME, organism-based, Canis lupus familiaris", "conditions": "in vivo, read-out: Vdss"}, "[8]": {"assay": "Clearance in iv dosed rat", "type": "ADME, organism-based", "conditions": "in vivo"}, "[9]": {"assay": "Clearance in iv dosed dog", "type": "ADME, organism-based, Canis lupus familiaris", "conditions": "in vivo"}, "[10]": {"assay": "Oral bioavailability dog", "type": "ADME, organism-based, Canis lupus familiaris", "conditions": "in vivo"}, "[11]": {"assay": "Volume of distribution at steady state in iv dosed rat", "type": "ADME, organism-based", "conditions": "in vivo, read-out: Vdss"}, "HeLa": {"tested_on": "HeLa", "assay": "Antiproliferative activity against human HeLa cells after 72 hrs by celltiter-blue viability assay", "type": "functional, cell-based"}, "[12]": {"assay": "Metabolic stability in rat liver microsomes assessed as intrinsic clearance", "type": "ADME, Microsome"}, "[13]": {"assay": "Oral bioavailability in rat", "type": "ADME, organism-based", "conditions": "in vivo"}, "Histone deacetylase 2": {"biological_target": "Histone deacetylase 2 (Homo sapiens, UniProt Q92769)", "sequence (Q92769 whole entry)": "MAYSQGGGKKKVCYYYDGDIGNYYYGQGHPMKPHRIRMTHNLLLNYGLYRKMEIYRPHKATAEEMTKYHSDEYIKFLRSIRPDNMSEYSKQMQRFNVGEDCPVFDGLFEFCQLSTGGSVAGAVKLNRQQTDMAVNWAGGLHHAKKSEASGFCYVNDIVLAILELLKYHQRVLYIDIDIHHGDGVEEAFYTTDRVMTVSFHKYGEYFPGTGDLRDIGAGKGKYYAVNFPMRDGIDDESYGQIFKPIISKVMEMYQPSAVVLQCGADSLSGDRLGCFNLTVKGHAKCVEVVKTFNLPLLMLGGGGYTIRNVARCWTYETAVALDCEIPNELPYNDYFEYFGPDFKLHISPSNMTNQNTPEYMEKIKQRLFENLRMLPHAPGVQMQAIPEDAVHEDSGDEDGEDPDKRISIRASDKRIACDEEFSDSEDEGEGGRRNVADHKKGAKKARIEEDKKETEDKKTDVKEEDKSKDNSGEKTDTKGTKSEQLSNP"}, "Histone deacetylase 4": {"biological_target": "Histone deacetylase 4 (Homo sapiens, UniProt P56524)", "sequence (P56524 whole entry)": "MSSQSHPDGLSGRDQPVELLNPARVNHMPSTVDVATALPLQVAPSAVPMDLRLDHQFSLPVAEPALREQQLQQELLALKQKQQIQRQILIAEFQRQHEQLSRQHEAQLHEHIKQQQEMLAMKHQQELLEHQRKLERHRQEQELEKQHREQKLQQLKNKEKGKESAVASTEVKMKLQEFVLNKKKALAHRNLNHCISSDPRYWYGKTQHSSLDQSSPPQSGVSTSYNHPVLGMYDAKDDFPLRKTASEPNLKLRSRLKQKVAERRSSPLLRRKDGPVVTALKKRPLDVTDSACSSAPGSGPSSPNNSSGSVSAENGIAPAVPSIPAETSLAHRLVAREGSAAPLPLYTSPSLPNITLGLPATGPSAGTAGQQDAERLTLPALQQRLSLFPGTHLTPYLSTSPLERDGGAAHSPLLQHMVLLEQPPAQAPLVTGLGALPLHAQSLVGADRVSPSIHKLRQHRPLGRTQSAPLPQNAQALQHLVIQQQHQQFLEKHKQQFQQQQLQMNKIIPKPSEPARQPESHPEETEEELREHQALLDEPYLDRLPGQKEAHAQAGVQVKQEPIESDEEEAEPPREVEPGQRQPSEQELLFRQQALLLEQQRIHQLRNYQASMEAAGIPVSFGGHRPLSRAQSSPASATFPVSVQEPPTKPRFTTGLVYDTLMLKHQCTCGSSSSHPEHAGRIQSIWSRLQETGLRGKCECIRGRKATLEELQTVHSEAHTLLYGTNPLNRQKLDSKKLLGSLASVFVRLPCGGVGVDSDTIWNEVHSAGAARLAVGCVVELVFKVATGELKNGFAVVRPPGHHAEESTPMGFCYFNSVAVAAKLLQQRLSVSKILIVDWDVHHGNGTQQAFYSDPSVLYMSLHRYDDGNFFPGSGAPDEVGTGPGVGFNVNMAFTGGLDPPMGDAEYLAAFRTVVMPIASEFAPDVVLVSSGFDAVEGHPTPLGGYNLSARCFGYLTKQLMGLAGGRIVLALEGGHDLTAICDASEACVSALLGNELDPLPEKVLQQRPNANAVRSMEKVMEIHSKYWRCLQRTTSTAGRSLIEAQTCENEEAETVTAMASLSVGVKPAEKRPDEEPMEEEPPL", "assay": "Inhibition of HDAC4"}, "Histone deacetylase 5": {"biological_target": "Histone deacetylase 5 (Homo sapiens, UniProt Q9UQL6)", "sequence (Q9UQL6 whole entry)": "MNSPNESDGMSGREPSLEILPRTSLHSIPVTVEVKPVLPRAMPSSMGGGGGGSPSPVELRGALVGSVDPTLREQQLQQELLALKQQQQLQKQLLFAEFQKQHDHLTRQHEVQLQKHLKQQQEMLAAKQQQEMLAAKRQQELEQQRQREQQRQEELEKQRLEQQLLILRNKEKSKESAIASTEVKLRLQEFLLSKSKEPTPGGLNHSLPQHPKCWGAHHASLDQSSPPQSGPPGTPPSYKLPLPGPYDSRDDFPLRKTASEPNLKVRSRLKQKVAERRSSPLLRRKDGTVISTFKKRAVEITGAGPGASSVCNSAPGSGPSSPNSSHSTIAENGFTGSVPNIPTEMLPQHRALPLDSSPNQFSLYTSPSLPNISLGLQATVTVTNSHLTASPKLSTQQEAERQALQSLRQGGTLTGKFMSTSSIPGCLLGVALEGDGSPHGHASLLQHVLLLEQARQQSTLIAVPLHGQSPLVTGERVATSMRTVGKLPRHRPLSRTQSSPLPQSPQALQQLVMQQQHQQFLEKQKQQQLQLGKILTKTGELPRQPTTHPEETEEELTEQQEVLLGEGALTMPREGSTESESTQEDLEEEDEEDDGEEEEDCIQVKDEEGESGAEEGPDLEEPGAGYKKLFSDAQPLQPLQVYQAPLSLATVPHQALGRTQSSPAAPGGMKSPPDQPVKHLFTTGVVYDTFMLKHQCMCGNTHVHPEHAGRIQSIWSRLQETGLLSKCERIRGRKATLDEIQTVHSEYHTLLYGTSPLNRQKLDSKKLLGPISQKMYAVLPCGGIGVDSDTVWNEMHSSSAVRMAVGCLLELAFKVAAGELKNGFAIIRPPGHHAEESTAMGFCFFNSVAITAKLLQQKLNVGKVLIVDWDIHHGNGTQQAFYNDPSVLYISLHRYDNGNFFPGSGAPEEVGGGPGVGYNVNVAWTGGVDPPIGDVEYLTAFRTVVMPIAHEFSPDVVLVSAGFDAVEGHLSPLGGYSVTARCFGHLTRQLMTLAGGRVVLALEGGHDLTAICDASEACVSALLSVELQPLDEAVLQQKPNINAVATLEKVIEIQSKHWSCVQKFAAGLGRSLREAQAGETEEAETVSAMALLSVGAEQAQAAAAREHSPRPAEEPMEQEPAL", "assay": "Inhibition of HDAC5"}, "Histone deacetylase 7": {"biological_target": "T1, Histone deacetylase 7 (Homo sapiens, UniProt Q8WUI4)", "T1 sequence (Q8WUI4 whole entry)": "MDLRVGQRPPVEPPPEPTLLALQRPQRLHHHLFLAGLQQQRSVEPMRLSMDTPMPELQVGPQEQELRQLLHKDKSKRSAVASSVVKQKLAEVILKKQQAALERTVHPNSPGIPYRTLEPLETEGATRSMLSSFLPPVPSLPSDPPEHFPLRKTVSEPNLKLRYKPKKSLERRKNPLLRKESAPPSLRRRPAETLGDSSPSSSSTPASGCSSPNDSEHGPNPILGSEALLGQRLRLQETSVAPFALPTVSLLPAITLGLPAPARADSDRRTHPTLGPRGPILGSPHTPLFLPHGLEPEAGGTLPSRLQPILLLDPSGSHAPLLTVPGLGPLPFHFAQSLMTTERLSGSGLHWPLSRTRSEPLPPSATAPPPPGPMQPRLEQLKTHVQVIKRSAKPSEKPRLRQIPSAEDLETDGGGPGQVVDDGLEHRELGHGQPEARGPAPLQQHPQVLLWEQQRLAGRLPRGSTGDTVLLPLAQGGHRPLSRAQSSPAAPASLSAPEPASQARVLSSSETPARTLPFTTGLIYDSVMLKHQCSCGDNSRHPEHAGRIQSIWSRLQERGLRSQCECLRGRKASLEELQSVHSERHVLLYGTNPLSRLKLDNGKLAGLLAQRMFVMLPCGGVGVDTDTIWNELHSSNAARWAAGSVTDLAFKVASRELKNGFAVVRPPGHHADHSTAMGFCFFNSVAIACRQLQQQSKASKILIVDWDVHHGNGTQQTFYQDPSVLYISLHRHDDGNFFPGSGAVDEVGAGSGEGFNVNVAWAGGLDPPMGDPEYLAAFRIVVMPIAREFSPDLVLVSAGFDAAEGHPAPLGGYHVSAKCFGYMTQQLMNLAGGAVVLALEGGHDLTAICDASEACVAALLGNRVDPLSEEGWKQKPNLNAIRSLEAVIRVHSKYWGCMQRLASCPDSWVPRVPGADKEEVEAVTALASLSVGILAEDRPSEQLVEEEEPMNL", "assay": "Inhibition of HDAC7"}, "Histone deacetylase 8": {"biological_target": "T2, Histone deacetylase 8 (Homo sapiens, UniProt Q9BY41)", "T2 sequence (Q9BY41 whole entry)": "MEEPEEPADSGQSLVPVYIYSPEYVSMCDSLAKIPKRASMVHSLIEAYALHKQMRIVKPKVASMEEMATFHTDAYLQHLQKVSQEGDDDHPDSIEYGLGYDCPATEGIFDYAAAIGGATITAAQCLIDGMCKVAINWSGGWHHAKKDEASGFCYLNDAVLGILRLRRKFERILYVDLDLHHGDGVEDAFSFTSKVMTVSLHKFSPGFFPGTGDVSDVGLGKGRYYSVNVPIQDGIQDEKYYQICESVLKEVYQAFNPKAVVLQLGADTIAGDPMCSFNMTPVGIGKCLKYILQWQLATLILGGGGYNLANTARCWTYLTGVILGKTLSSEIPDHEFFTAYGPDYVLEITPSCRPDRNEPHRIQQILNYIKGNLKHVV", "assay": "Inhibition of HDAC8"}, "HCT-116": {"tested_on": "HCT-116", "assay": "Antiproliferative activity against human HCT116 cells after 72 hrs by celltiter-blue viability assay", "type": "functional, cell-based", "conditions": "HCT-116, 72 h"}, "A549": {"tested_on": "A549", "assay": "Antiproliferative activity against human A549 cells after 72 hrs by celltiter-blue viability assay", "type": "functional, cell-based", "conditions": "A549, 72 h"}, "Histone deacetylase 1": {"biological_target": "Histone deacetylase 1 (Homo sapiens, UniProt Q13547)", "sequence (Q13547 whole entry)": "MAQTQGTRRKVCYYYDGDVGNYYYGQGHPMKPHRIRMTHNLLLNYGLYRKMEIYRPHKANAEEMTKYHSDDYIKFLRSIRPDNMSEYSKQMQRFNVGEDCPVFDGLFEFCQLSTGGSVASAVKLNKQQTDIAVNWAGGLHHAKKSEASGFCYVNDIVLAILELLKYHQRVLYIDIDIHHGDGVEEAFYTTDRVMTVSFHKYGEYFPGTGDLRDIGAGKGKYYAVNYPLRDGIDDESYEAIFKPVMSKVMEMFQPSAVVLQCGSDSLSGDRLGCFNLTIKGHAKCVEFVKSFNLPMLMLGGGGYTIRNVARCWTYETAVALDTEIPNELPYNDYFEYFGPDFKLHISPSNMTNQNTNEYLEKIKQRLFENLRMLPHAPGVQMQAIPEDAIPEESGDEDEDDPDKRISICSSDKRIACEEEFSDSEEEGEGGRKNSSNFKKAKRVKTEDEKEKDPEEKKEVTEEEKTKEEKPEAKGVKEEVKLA", "description": "Inhibition of human recombinant C-terminally flag tagged HDAC1"}, "Histone deacetylase 3": {"biological_target": "Histone deacetylase 3 (Homo sapiens, UniProt O15379)", "sequence (O15379 whole entry)": "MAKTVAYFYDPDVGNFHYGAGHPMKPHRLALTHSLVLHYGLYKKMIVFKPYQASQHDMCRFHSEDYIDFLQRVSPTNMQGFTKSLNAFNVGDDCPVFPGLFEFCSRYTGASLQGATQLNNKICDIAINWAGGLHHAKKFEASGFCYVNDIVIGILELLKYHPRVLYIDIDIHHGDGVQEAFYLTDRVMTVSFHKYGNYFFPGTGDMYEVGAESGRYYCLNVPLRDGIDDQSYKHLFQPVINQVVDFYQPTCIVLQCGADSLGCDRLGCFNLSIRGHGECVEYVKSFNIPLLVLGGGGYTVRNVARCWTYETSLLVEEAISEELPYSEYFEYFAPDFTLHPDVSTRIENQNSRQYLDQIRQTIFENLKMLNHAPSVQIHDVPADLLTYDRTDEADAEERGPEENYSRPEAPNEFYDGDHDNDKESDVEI"}, "[14]": {"biological_target": "T3, Protein deacetylase HDAC6 (Homo sapiens, UniProt Q9UBN7)", "T3 sequence (Q9UBN7 whole entry)": "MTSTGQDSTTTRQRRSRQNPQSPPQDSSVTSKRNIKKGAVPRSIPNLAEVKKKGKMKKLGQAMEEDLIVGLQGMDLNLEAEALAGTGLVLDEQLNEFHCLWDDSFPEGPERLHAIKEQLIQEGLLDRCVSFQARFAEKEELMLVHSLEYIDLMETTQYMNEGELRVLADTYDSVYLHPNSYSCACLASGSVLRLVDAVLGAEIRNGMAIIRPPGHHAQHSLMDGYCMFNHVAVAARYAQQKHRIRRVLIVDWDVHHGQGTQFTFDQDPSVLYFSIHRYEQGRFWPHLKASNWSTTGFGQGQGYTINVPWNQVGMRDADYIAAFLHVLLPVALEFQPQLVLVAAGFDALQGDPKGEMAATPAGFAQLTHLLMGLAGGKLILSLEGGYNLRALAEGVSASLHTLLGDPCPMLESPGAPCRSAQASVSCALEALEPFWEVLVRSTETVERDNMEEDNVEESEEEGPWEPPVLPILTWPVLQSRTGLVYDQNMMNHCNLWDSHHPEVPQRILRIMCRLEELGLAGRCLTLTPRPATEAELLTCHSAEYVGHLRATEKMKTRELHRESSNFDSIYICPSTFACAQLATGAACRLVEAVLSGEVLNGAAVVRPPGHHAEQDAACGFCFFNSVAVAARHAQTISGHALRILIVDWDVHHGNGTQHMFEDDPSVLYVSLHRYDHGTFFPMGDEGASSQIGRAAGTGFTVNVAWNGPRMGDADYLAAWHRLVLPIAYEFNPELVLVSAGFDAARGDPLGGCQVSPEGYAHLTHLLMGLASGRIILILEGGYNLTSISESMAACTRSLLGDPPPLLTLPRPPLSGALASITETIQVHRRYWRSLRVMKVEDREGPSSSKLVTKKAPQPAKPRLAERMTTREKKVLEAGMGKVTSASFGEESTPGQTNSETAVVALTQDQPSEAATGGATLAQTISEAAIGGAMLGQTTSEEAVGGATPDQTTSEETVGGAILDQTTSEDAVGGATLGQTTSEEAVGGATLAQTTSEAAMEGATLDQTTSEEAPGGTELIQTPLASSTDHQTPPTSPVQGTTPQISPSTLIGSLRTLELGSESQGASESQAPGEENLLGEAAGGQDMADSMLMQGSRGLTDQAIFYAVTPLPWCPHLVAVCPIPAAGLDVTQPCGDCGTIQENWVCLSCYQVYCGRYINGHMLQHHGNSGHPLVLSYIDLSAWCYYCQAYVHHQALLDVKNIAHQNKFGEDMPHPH"}}, "data": [{"smiles": "CC(=O)CCCCC[C@H](NC(=O)C1CCN(C)CC1)c1ncc(-c2ccc3ccccc3c2)[nH]1", "values": [{"measurement": "CL", "setting": "[1]", "result": 10, "unit": "µL/min/mg"}, {"measurement": "CL", "setting": "Liver microsomes", "result": 12, "unit": "µL/min/mg"}, {"measurement": "fraction unbound", "setting": "[2]", "result": 0.11}, {"measurement": "fraction unbound", "setting": "[3]", "result": 0.04}, {"measurement": "fraction unbound", "setting": "[4]", "result": 0.04}, {"measurement": "half-life", "setting": "[5]", "result": 2.4, "unit": "h"}, {"measurement": "half-life", "setting": "[6]", "result": 11.8, "unit": "h"}, {"measurement": "Vd", "setting": "[7]", "result": 5.2, "unit": "L/kg"}, {"measurement": "clearance", "setting": "[8]", "result": 133, "unit": "mL/min/kg"}, {"measurement": "clearance", "setting": "[9]", "result": 7, "unit": "mL/min/kg"}, {"measurement": "bioavailability", "setting": "[10]", "result": 28, "unit": "%"}, {"measurement": "Vd", "setting": "[11]", "result": 6.9, "unit": "L/kg"}, {"measurement": "IC50", "setting": "HeLa", "result": 300, "unit": "nM"}, {"measurement": "microsomal CLint", "setting": "[12]", "result": 194, "unit": "µL/min/mg"}, {"measurement": "bioavailability", "setting": "[13]", "result": 0, "unit": "%"}, {"measurement": "IC50", "setting": "Histone deacetylase 2", "result": 29, "unit": "nM"}, {"measurement": "IC50", "setting": "Histone deacetylase 4", "result": "> 1000", "unit": "nM"}, {"measurement": "IC50", "setting": "Histone deacetylase 5", "result": "> 1000", "unit": "nM"}, {"measurement": "IC50", "setting": "Histone deacetylase 7", "result": "> 1000", "unit": "nM"}, {"measurement": "IC50", "setting": "Histone deacetylase 8", "result": "> 1000", "unit": "nM"}, {"measurement": "IC50", "setting": "HCT-116", "result": 590, "unit": "nM"}, {"measurement": "IC50", "setting": "A549", "result": 720, "unit": "nM"}, {"measurement": "IC50", "setting": "Histone deacetylase 1", "result": 11, "unit": "nM"}, {"measurement": "IC50", "setting": "Histone deacetylase 3", "result": 17, "unit": "nM"}, {"measurement": "IC50", "setting": "[14]", "result": 10, "unit": "nM"}]}]}
